Measured values reported in patent publication US20080176936A1, “Classes of Compounds that Interact with Integrins” (priority 2005, published 2008).

Assays:
αllbβ3 integrin = target: T1, αllbβ3 integrin (Homo sapiens, UniProt P05106+P08514); assay: ELISA: inhibition of binding of αllbβ3 integrin membrane preparation to coated extracellular matrix protein; conditions: human platelet membrane preparation
T1 construct: Human platelet membrane preparations were used as a source of αllbβ3 integrin; from tissue; host or cells: human platelets (membrane preparation)
Procedure: (§1) An ELISA assay based on the published method of Bethert et al., 2000, J Biol Chem 275, 33308-23, was employed.
(§2) Briefly, appropriate microtitre plates were coated with either Fibrinogen or Vitronectin (10 μg/well). These extracellular matrix proteins contain the RGD amino acid sequence that is recognized by αllbβ3 integrin. Human platelet membrane preparations were used as a source of αllbβ3 integrin and the cell line WM-115 was used as a source of αVβ3 integrin. Inhibition of the binding of αllbβ3 integrin containing membrane preparations to the extracellular matrix protein was determined by pre-incubating the platelet membrane preparation with test or control compounds. The binding of the αllbβ3 integrin containing membrane was the quantitated by using a rabbit anti-integrinβ3 antibody, a horse radish peroxidase coupled second antibody and a standard colorimetric detection system.

αVβ3 integrin = target: T2, αVβ3 integrin (Homo sapiens, UniProt P05106+P06756); assay: ELISA: inhibition of binding of αVβ3 integrin (source WM-115 cell line) to coated extracellular matrix protein; conditions: WM-115 cell line as integrin source
T2 construct: the cell line WM-115 was used as a source of αVβ3 integrin; endogenous in cells; host or cells: WM-115 cell line
Procedure: as §1, §2

T2 sequence (P06756 31-889 limits assumed): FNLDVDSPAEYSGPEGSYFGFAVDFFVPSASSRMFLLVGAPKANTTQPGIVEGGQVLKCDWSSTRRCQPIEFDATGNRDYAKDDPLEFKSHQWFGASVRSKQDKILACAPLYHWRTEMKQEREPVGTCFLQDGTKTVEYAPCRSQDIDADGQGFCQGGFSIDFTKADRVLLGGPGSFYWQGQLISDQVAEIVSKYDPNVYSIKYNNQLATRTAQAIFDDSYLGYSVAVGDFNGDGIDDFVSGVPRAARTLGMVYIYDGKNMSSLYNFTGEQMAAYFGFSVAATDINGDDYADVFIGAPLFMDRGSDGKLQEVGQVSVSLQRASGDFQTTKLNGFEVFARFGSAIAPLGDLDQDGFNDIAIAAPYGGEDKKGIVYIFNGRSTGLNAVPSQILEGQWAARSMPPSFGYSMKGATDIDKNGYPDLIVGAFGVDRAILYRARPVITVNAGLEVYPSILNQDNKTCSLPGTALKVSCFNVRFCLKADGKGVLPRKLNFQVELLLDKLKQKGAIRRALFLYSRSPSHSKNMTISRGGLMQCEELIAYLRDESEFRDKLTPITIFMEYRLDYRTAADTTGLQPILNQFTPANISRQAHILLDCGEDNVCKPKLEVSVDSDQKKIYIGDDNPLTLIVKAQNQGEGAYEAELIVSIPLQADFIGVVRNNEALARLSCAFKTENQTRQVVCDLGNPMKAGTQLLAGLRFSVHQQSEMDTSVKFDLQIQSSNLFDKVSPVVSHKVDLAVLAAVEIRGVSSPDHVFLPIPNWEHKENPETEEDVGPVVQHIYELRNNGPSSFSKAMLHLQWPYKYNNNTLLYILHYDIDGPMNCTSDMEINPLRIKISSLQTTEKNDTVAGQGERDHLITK
T2 sequence (P06756 891-1048 partner limits assumed): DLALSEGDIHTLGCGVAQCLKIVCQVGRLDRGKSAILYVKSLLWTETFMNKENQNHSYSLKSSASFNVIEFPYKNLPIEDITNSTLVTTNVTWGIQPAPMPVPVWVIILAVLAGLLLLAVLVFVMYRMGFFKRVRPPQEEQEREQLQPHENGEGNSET
T2 sequence (P05106 27-788): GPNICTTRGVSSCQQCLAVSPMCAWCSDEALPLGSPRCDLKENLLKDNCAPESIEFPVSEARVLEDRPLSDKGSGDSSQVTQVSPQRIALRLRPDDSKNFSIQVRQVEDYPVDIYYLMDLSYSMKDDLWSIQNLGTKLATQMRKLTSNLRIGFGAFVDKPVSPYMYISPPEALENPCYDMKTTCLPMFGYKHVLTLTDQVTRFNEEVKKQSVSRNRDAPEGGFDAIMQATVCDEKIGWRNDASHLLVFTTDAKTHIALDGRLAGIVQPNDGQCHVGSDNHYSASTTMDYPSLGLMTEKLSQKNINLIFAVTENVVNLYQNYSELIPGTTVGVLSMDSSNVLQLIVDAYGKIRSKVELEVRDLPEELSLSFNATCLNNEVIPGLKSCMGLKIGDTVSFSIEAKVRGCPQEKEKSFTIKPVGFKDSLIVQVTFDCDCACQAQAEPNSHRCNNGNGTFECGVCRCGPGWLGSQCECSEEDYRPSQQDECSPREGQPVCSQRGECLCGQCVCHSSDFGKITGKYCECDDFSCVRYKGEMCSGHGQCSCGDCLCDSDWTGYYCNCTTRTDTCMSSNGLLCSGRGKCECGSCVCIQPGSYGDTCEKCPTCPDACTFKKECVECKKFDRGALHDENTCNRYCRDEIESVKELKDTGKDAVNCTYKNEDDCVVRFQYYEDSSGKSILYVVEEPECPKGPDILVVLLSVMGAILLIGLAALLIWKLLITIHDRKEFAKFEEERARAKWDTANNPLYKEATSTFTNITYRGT
T1 sequence (P08514 32-887 limits assumed): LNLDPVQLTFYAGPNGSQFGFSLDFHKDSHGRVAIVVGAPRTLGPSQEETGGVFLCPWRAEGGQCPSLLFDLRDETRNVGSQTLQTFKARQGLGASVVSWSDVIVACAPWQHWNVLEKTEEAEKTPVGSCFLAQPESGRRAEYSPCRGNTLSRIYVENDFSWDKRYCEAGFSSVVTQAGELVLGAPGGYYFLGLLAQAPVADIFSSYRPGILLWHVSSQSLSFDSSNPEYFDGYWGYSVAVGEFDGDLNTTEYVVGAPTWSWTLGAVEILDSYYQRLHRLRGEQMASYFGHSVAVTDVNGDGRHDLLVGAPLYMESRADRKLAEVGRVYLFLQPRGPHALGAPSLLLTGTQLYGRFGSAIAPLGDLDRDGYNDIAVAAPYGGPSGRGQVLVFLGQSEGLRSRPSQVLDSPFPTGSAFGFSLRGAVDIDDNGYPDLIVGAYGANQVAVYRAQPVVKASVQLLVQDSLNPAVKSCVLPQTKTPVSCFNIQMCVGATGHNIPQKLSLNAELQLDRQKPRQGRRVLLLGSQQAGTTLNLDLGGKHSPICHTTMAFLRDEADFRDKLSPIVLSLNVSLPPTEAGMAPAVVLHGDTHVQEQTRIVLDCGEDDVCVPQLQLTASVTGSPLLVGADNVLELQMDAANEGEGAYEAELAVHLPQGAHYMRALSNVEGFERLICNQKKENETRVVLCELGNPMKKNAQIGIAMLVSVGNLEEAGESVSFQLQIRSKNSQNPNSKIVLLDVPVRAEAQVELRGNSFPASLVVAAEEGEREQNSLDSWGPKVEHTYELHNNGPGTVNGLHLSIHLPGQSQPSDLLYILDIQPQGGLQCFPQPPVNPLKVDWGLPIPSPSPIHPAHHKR
T1 sequence (P08514 891-1039 partner limits assumed): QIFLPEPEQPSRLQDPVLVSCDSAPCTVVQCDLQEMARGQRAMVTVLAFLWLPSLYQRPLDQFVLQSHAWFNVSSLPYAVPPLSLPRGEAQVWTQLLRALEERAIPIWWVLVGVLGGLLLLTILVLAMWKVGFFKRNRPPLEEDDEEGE
T1 sequence (P05106 27-788): as the sequence (P05106 27-788) above

| Compound | INHIBITION @ 250 uM RECEPTOR allBb3 SUBSTRATE FIBRINOGEN (αllbβ3 integrin) | INHIBITION 250 uM RECEPTOR allBb3 SUBSTRATE VITRONECTIN (αllbβ3 integrin) | INHIBITION 250 uM RECEPTOR aVb3 SUBSTRATE FIBRINOGEN (αVβ3 integrin) |
| --- | --- | --- | --- |
| Nc1cccc(C(=O)NC2C(O)OC(COCC(=O)O)C(O)C2OCc2ccc(Br)cc2)c1 (single isomer, unassigned) [Compound 1] | + (36% to 60% inhibition at 250 micromolar) | + (36% to 60% inhibition at 250 micromolar) | − (0% to 35% inhibition at 250 micromolar) |
| COC1OC(COCc2cccc(N)c2)C(O)C(OCc2ccc(Br)cc2)C1NC(=O)c1ccc(C(=O)O)cc1 (single isomer, unassigned) [Compound 3] | + (36% to 60% inhibition at 250 micromolar) | +++ (81% to 100% inhibition at 250 micromolar) | + (36% to 60% inhibition at 250 micromolar) |
| COC1OC(COCc2cccc(N)c2)C(O)C(OCc2ccc(Br)cc2)C1NC(=O)c1ccc(C(=O)O)cc1 (single isomer, unassigned) [Compound 4] | − (0% to 35% inhibition at 250 micromolar) | − (0% to 35% inhibition at 250 micromolar) | + (36% to 60% inhibition at 250 micromolar) |
| COC1OC(COCc2ccccc2)C(O)C(OCC(=O)O)C1NC(=O)c1cccc(N)c1 (single isomer, unassigned) [Compound 5] | ++ (61% to 80% inhibition at 250 micromolar) | +++ (81% to 100% inhibition at 250 micromolar) | ++ (61% to 80% inhibition at 250 micromolar) |
| COC1OC(COCc2ccccc2)C(O)C(OCC(=O)O)C1NC(=O)c1cccc(N)c1 (single isomer, unassigned) [Compound 6] | − (0% to 35% inhibition at 250 micromolar) | +++ (81% to 100% inhibition at 250 micromolar) | +++ (81% to 100% inhibition at 250 micromolar) |
| COC1OC(COCc2ccc(Br)cc2)C(O)C(OCC(=O)O)C1NC(=O)c1cccc(N)c1 (single isomer, unassigned) [Compound 7] | + (36% to 60% inhibition at 250 micromolar) | +++ (81% to 100% inhibition at 250 micromolar) | + (36% to 60% inhibition at 250 micromolar) |
| COC1OC(COCc2ccc(Br)cc2)C(O)C(OCC(=O)O)C1NC(=O)c1cccc(N)c1 (single isomer, unassigned) [Compound 8] | + (36% to 60% inhibition at 250 micromolar) | +++ (81% to 100% inhibition at 250 micromolar) | +++ (81% to 100% inhibition at 250 micromolar) |
| COC1OC(COCc2cccc(N)c2)C(O)C(OCC(=O)O)C1NC(=O)c1ccc(Cl)cc1 (single isomer, unassigned) [Compound 9] | + (36% to 60% inhibition at 250 micromolar) | +++ (81% to 100% inhibition at 250 micromolar) | +++ (81% to 100% inhibition at 250 micromolar) |
| COC1OC(COCc2cccc(N)c2)C(O)C(OCC(=O)O)C1NC(=O)c1ccc(Cl)cc1 (single isomer, unassigned) [Compound 10] | ++ (61% to 80% inhibition at 250 micromolar) | +++ (81% to 100% inhibition at 250 micromolar) | +++ (81% to 100% inhibition at 250 micromolar) |
| COC1OC(COCc2ccccc2)C(O)C(OCc2ccc(C(=O)O)cc2)C1NC(=O)CCNC(=N)N (single isomer, unassigned) [Compound 11] | + (36% to 60% inhibition at 250 micromolar) | +++ (81% to 100% inhibition at 250 micromolar) | + (36% to 60% inhibition at 250 micromolar) |
| COC1OC(COCc2ccccc2)C(O)C(OCc2ccc(C(=O)O)cc2)C1NC(=O)CCNC(=N)N (single isomer, unassigned) [Compound 12] | ++ (61% to 80% inhibition at 250 micromolar) | ++ (61% to 80% inhibition at 250 micromolar) | − (0% to 35% inhibition at 250 micromolar) |
| COC(=O)c1ccc(COC2C(O)C(COCc3ccccc3)OC(OC)C2NC(=O)CCNC(=N)N)cc1 (single isomer, unassigned) [Compound 13] | + (36% to 60% inhibition at 250 micromolar) | +++ (81% to 100% inhibition at 250 micromolar) | − (0% to 35% inhibition at 250 micromolar) |
| COC(=O)c1ccc(COC2C(O)C(COCc3ccccc3)OC(OC)C2NC(=O)CCNC(=N)N)cc1 (single isomer, unassigned) [Compound 14] | + (36% to 60% inhibition at 250 micromolar) | +++ (81% to 100% inhibition at 250 micromolar) | ++ (61% to 80% inhibition at 250 micromolar) |
| COC1OC(COCc2ccc(Br)cc2)C(O)C(OCc2ccc(C(=O)O)cc2)C1NC(=O)CCNC(=N)N (single isomer, unassigned) [Compound 15] | + (36% to 60% inhibition at 250 micromolar) | +++ (81% to 100% inhibition at 250 micromolar) | ++ (61% to 80% inhibition at 250 micromolar) |
| COC1OC(COCc2ccc(Br)cc2)C(O)C(OCc2ccc(C(=O)O)cc2)C1NC(=O)CCNC(=N)N (single isomer, unassigned) [Compound 16] | + (36% to 60% inhibition at 250 micromolar) | +++ (81% to 100% inhibition at 250 micromolar) | ++ (61% to 80% inhibition at 250 micromolar) |
| COC(=O)c1ccc(COC2C(O)C(COCc3ccc(Br)cc3)OC(OC)C2NC(=O)CCNC(=N)N)cc1 (single isomer, unassigned) [Compound 17] | + (36% to 60% inhibition at 250 micromolar) | +++ (81% to 100% inhibition at 250 micromolar) | +++ (81% to 100% inhibition at 250 micromolar) |
| COC1OC(COCc2cccc(N)c2)C(O)C(OCc2ccc(C(=O)O)cc2)C1NC(=O)c1ccccc1 (single isomer, unassigned) [Compound 18] | ++ (61% to 80% inhibition at 250 micromolar) | +++ (81% to 100% inhibition at 250 micromolar) | +++ (81% to 100% inhibition at 250 micromolar) |
| COC1OC(COCc2cccc(N)c2)C(O)C(OCc2ccc(C(=O)O)cc2)C1NC(=O)c1ccccc1 (single isomer, unassigned) [Compound 19] | ++ (61% to 80% inhibition at 250 micromolar) | +++ (81% to 100% inhibition at 250 micromolar) | +++ (81% to 100% inhibition at 250 micromolar) |
| COC1OC(COCc2ccccc2)C(O)C(OCc2cccc(N)c2)C1NC(=O)CCC(=O)O (single isomer, unassigned) [Compound 20] | +++ (81% to 100% inhibition at 250 micromolar) | +++ (81% to 100% inhibition at 250 micromolar) | +++ (81% to 100% inhibition at 250 micromolar) |
| COC1OC(COCc2ccccc2)C(O)C(OCc2cccc(N)c2)C1NC(=O)CCC(=O)O (single isomer, unassigned) [Compound 21] | +++ (81% to 100% inhibition at 250 micromolar) |  | +++ (81% to 100% inhibition at 250 micromolar) |
| Nc1cccc(COC2C(O)C(COCc3ccccc3)OC(O)C2NC(=O)CCC(=O)O)c1 (single isomer, unassigned) [Compound 22] | + (36% to 60% inhibition at 250 micromolar) | + (36% to 60% inhibition at 250 micromolar) | + (36% to 60% inhibition at 250 micromolar) |
| Nc1cccc(COC2C(O)C(COCc3ccccc3)OC(O)C2NC(=O)CCC(=O)O)c1 (single isomer, unassigned) [Compound 23] | ++ (61% to 80% inhibition at 250 micromolar) | +++ (81% to 100% inhibition at 250 micromolar) | − (0% to 35% inhibition at 250 micromolar) |
| COC1OC(COCc2ccc(Br)cc2)C(O)C(OCc2cccc(N)c2)C1NC(=O)CCC(=O)O (single isomer, unassigned) [Compound 24] | + (36% to 60% inhibition at 250 micromolar) | +++ (81% to 100% inhibition at 250 micromolar) | ++ (61% to 80% inhibition at 250 micromolar) |
